# Results: patent publication US20250268860A1, “COMPOSITION FOR USE IN THE CUTANEOUS SYNTHESIS OF HYALURONIC ACID, IN AN IMMUNO-CUTANEOUS RESPONSE AND TO IMPROVE SKIN” (JR, priority 2021, published 2025)
# Read-outs that look alike come from different tables or passages of the source.
# Legend:
# beta-defensin-2 (hBD-2) = test: hBD-2 release from keratinocytes, ELISA; type: cell-based, human; conditions: for hBD-2 % control / hBD-2 Mean / hBD-2: 72 hours; for hBD-2: single values
# Experimental: More specifically, the effect of these compounds was evaluated on the release of beta-defensin-2 (hBD -2) by Enzyme-Linked Immunosorbent Assay (ELISA). Prior to this, a preliminary cytotoxicity test was performed using a standard WST-8 reduction assay to determine the concentrations to be tested.
# (§1) • Cell type: Normal human epidermal keratinocytes (NHEK), used at the third passage • Culture conditions: 37° C., 5% CO2 • Culture medium: Keratinocyte-SFM optimized for the test, supplemented with Epidermal Growth Factor and pituitary extract
# The keratinocytes were seeded in 96-well plates and cultured in culture medium for 24 hours. The medium was then replaced with culture medium containing or not (control) the compounds to be tested or the reference cytokine mixture (IL-17+IL-22+TNF-α at 5 ng/ml each). The cells were then incubated for 72 hours. All the experimental conditions were performed in n=3.
# The inter-group comparisons were made using the unpaired bilateral Student's t-test. The statistical analyses can be interpreted if n>5; however for n<5, the calculated data are provided purely as a guide.
# [1] = system: Fibroblasts from healthy skin (FS)
# Experimental: Fibroblasts from healthy skin (FS) are cultured from biopsies performed on a patient, on a skin explant derived from surgery and considered as surgical waste. The conventional explantation technique is used for fibroblast extraction. The explants are cultured in Dulbecco's modified Eagle's medium supplemented with 10% fetal calf serum (FCS), 40 mg/l gentamicin and 2 mg/l fungizone (DMEMc) at 37° C., in a humid atmosphere and in the presence of 5% CO2.
# The study of cell viability in the presence of the active principles to be tested is performed by means of an MTT assay. MTT is a tetrazolium salt whose ring is transformed by mitochondrial dehydrogenases. The yellow substrate is transformed into a dark blue product by living cells, but not by dead cells or the culture medium. This colorimetric test allows the color intensity to be linked to the number of living cells. The absorbance at 550 nm is directly proportional to the number of living fibroblasts. Cytotoxicity occurs when the cell viability is less than 80% relative to the control.
# The active agents in powder form were taken up in 100% DMSO so as to obtain the stock solutions. […] After 24 hours of culturing, the active principles to be tested were added. Twelve concentrations of each active principle were tested (n=10/concentration). The active agents were dissolved directly in the culture medium from the stock solutions. After 24 hours of culturing in the presence of the active agents, an MTT assay was performed.
# Following the cytotoxicity results of the two active agents alone, a second cytotoxicity test was performed with the mixture. For each mixture, three concentrations were tested (n=10/concentration): • C1: highest concentration • C2: ½ dilution • C3: […]
# The values are expressed as a percentage relative to the control, plus or minus the standard error of the distribution of the means (SEM). A one-factor analysis of variance is performed, followed if necessary by a Fisher test. Significance is retained only when p<0.05.
# [2] = system: hyaluronic acid synthesis; test: Hyaluronic acid assay (ELISA) in fibroblast culture supernatant; type: cell-based, human
# Experimental: At confluence, the fibroblasts were trypsinized and seeded in 6-well plates at 0.08×10^6 cells per well in DMEMc 10% FCS. After 24 hours of culturing, the medium was replaced with DMEMc 1% FCS.
# After 24 hours of culturing, 2 ml of medium with or without active agent were added. The active agents were diluted to the concentrations chosen following cytotoxicity tests in DMEMc 1% FCS culture medium.
# Aliquots were stored at −80° C. until assayed. The cell monolayers were washed with PBS and 500 μl of 0.1N NaOH were added. The cell lyzate was stored at −20° C. until protein assay.
# The amount of hyaluronic acid in the various samples was determined by ELISA (Enzyme-Linked Immunosorbent Assay) using a TECO@kit. This kit is a sensitive sandwich assay which uses microplates coated with hyaluronic acid binding protein (HABP) and HRP-conjugated HABP binding protein for detection. The HRP-conjugated HABP binding protein binds to the hyaluronic acid contained in the sample, and then reacts with the substrate. The color intensity is proportional to the HA content of the sample.
# 100 μl of standard or 100 μl of sample diluted to 1:50 were added to each well. The plate was incubated for 2 hours at room temperature, with agitation. After washing the plate, 100 μl of HRBP-HRP conjugate were added to each well. The plate was incubated for 30 minutes at room temperature, with agitation. After washing the wells, 100 μl of TMB substrate were added. The plate was incubated for 30 minutes at room temperature, in the dark and with agitation. The reaction was stopped by adding 100 μl of stop solution per well. Optical density readings were immediately taken at 450 nm.
# The calibration curve was plotted, representing OD as a function of hyaluronic acid concentration. A regression curve was then plotted and the amounts of hyaluronic acid contained in the samples were determined by means of the equation of this regression curve. The hyaluronic acid concentrations are expressed in ng/mg of protein.
# A calibration range (0-2 mg/ml) was established using a solution of bovine serum albumin. 20 μl of each point of the calibration or sample range were placed in duplicate in the wells of a 96-well plate. 200 μl of Pierce reagent were added and the plate was incubated for 30 minutes at 37° C. The absorbance was read immediately at 550 nm (MultiSkan FC spectrophotometer, Thermo).
# Significance is retained only when p<0.05.
# [3] = system: Normal human epidermal keratinocytes (NHEK); test: Preliminary test of cytotoxicity, WST-8 reduction and morphological observations; type: cell-based; conditions: 72 h
# Experimental: as §1
# • Cell type: NHEK in culture medium • Incubation time: 72 hours • Evaluation parameters: WST-8 reduction and morphological microscopic observations.
# At the end of the treatment, the cells were incubated in the presence of WST-8 (a highly water-soluble tetrazolium salt), reduced to a water-soluble, orange-colored product (formazan) by succinate dehydrogenase (a mitochondrial enzyme). This transformation is proportional to the number of living cells and their metabolic activity. The optical density (OD) was measured with a spectrophotometer at 450 nm (VERSAmax, Molecular Devices).
# Percentage viability: viability (%)=(OD compound/OD control)×100
smiles,measurement,setting,value
"O=C(/C=C/c1ccc(O)c(O)c1)O[C@@H]1C[C@](O)(C(=O)O)C[C@@H](O)[C@H]1O [GPCB07, chlorogenic acid]",effect on beta-defensin-2 release from human epidermal keratinocytes,beta-defensin-2 (hBD-2),no effect
same,hBD-2 % control,beta-defensin-2 (hBD-2); 0.0033%,<73 % control
same,hBD-2 Mean,beta-defensin-2 (hBD-2); 0.0033%,<8 pg/mL
same,hBD-2,beta-defensin-2 (hBD-2); 0.0033%,<8 pg/mL
same,hBD-2 % control,beta-defensin-2 (hBD-2); 0.01%,<73 % control
same,hBD-2 Mean,beta-defensin-2 (hBD-2); 0.01%,<8 pg/mL
same,hBD-2,beta-defensin-2 (hBD-2); 0.01%,<8 pg/mL
same,hBD-2 % control,beta-defensin-2 (hBD-2); 0.03%,<73 % control
same,hBD-2 Mean,beta-defensin-2 (hBD-2); 0.03%,<8 pg/mL
same,hBD-2,beta-defensin-2 (hBD-2); 0.03%,<8 pg/mL
same,maximum non-cytotoxic concentration retained,"[1]; female, human, 24 h",100 µM
same,Viability (%/Ctrl),"[1]; female, human, 24 h, 0.5 μM",95.14 %/Ctrl
same,Viability (%/Ctrl),"[1]; female, human, 24 h, 1 μM",94.89 %/Ctrl
same,Viability (%/Ctrl),"[1]; female, human, 24 h, 5 μM",101.75 %/Ctrl
same,Viability (%/Ctrl),"[1]; female, human, 24 h, 10 μM",89.63 %/Ctrl
same,Viability (%/Ctrl),"[1]; female, human, 24 h, 25 μM",100.28 %/Ctrl
same,Viability (%/Ctrl),"[1]; female, human, 24 h, 50 μM",99.64 %/Ctrl
same,Viability (%/Ctrl),"[1]; female, human, 24 h, 75 μM",103.28 %/Ctrl
same,Viability (%/Ctrl),"[1]; female, human, 24 h, 100 μM",100.41 %/Ctrl
same,improvement of hyaluronic acid (HA) content of skin cells reported in Ref. 18,"[2]; 100 μM, FIG. 4",could not be reproduced
same,decrease of hyaluronic acid synthesis,"[2]; tested alone, 100 μM, 48 hours, relative to control",about 20%
"O=C(O)[C@H]1O[C@@H](Oc2cc3oc(-c4ccccc4)cc(=O)c3c(O)c2O)[C@H](O)[C@@H](O)[C@@H]1O [GPCB09, baicalin]",Viability Mean (%),[3]; 0.0004 mg/mL,99%
same,Viability Mean (%),[3]; 0.0012 mg/mL,96%
same,Viability Mean (%),[3]; 0.0037 mg/mL,87%
same,Viability Mean (%),[3]; 0.011 mg/mL,66%
same,Viability Mean (%),[3]; 0.033 mg/mL,35%
same,Viability Mean (%),[3]; 0.098 mg/mL,21%
same,Viability Mean (%),[3]; 0.287 mg/mL,19%
same,Viability Mean (%),[3]; 0.38 mg/mL,1%
same,effect on beta-defensin-2 release from human epidermal keratinocytes,beta-defensin-2 (hBD-2),no effect
same,hBD-2 % control,beta-defensin-2 (hBD-2); 0.0001%,<73 % control
same,hBD-2 Mean,beta-defensin-2 (hBD-2); 0.0001%,<8 pg/mL
same,hBD-2,beta-defensin-2 (hBD-2); 0.0001%,<8 pg/mL
same,hBD-2 % control,beta-defensin-2 (hBD-2); 0.0003%,<73 % control
same,hBD-2 Mean,beta-defensin-2 (hBD-2); 0.0003%,<8 pg/mL
same,hBD-2,beta-defensin-2 (hBD-2); 0.0003%,<8 pg/mL
same,hBD-2 % control,beta-defensin-2 (hBD-2); 0.001%,<73 % control
same,hBD-2 Mean,beta-defensin-2 (hBD-2); 0.001%,<8 pg/mL
same,hBD-2,beta-defensin-2 (hBD-2); 0.001%,<8 pg/mL
same,Viability (%/Ctrl),"[1]; 0.5 μM, 24 hours",99.82 %/Ctrl
same,Viability (%/Ctrl),"[1]; 1.0 μM, 24 hours",98.27 %/Ctrl
same,Viability (%/Ctrl),"[1]; 5.0 μM, 24 hours",101.92 %/Ctrl
same,Viability (%/Ctrl),"[1]; 10.0 μM, 24 hours",100.76 %/Ctrl
same,Viability (%/Ctrl),"[1]; 50.0 μM, 24 hours",86.65 %/Ctrl
same,Viability (%/Ctrl),"[1]; 100.00 μM, 24 hours",21.80 %/Ctrl
same,decrease in cell viability relative to the control,[1]; 75 and 100 μM,very significant
same,concentration causing a significant reduction in cell viability relative to the control,"[1]; 24 hours, MTT",≥ 50 µM
same,maximum non-cytotoxic concentration retained,[1]; active agent alone,25 µM
same,effect on HA content relative to a control test,"[2]; 25 μM, FIG. 4",improve HA content
same,increase of hyaluronic acid synthesis,"[2]; tested alone, 25 μM, 48 hours, relative to control",about 30%
